Data taken from article PMC4919066 (PLoS Pathogens, 2016).
Counter-ions that a name gives are not always drawn.

Columns and labels:
[1] = tested on: HCMV proteins IE1/2, UL44 and pp65; test: Western blot of viral proteins; format: cell-based, Human Cytomegalovirus; conditions: emetine 75 nM, 72 hpi
From the text: Cell lysates were quantified for protein content using bicinchoninic acid (BCA) protein assay kit (Pierce Chemical, Rockford, IL). Equivalent amount of proteins were used for Western blot analysis as described previously (11). Protein bands were visualized by chemiluminescence using Western Blotting Luminol Reagent (Santa Cruz Biotechnology, Santa Cruz, CA). The following antibodies were used for detection of HCMV proteins: mouse anti-IE1 and IE2, (MAb810); mouse anti-UL44 (Santa Cruz biotechnology); mouse monoclonal anti-pp65 (Vector laboratories, Burlingame, CA); mouse monoclonal anti-β-actin antibody (Millipore, Billerica, MA); rabbit polyclonal anti-RPS14 and mouse monoclonal anti-MDM2 (AbCam, Cambridge, UK), mouse monoclonal anti-p53 (Santa Cruz); horseradish peroxidase (HRP)-conjugated goat anti-rabbit IgG (Cell Signaling); and HRP-conjugated sheep anti-mouse IgG, (GE Healthcare, Waukesha, WI). For detection of co-immunoprecipitated proteins, protein A-HRP conjugate (Cell Signaling Technologies, Beverly, MA) was used as secondary antibody to eliminate the interfering IgG bands.

[2] = tested on: pp28-luciferase HCMV Towne; test: microbe, parasite or virus in culture; format: cell-based, Human Cytomegalovirus; conditions: for normalized pp28-luciferase activity: emetine 75 nM, 72 hpi
Description: The pp28-luciferase HCMV Towne and a GCV-resistant pp28-luciferase were used. The recombinant viruses express luciferase under the control of the late CMV gene promoter, pp28. Luciferase expression is activated 48–72 hours post infection (hpi). The recombinant viruses provide a highly-sensitive reporter system which correlates with plaque reduction assay. […] Human herpes virus strains were: luciferase HSV1- KOS/Dlux/oriS [52] and clinical isolates of HSV2. The clinical isolates were provided by the clinical microbiology laboratory with no identifiers that can link to a specific subject.
Infection with HCMV or HSV was performed in HFFs, and infection with mouse CMV was performed in MEFs. For HCMV, cells were seeded in either a 96-well plate or 100 mm culture plates (Corning Costar, Sigma Aldrich) at 0.5 or 2 million cells /plate. Following 90 minute adsorption, media was removed and cells were washed with PBS. Media containing 4% FBS and compounds were added to each well. Infected treated HFFs were collected at 72 hpi and lysates were assayed for luciferase activity using a luciferase assay kit (Promega, Madison, WI) on GloMax-Multi+ Detection System (Promega). In second cycle assays, supernatants were collected from all conditions of the first cycle at 96 hpi and used for infection of fresh HFFs in 96-well plates. […] For HSV1-KOS/Dlux/oriS, a luciferase assay was performed at 24 hpi. […] For HCMV or MCMV, HFFs or MEFs were seeded at 0.5 or 2 million cells /plate in a 12-well plate and infected 24 hours later at 100 PFU/well. Following virus adsorption (60 min and 90 min for HSV and HCMV, respectively), virus was aspirated, and DMEM containing 4% fetal bovine serum (FBS) with (for HSV) or without (for HCMV/MCMV) 0.5% carboxymethyl-cellulose, were added with the compounds at indicated concentrations into triplicate wells. After incubation at 37°C for 10 days (for HCMV), 3 days for MCMV or 2 days (for HSV), the overlay was removed and plaques were counted after crystal violet staining.

MDM2-p53 = test: Co-immunoprecipitation MDM2-p53; format: cell-based, human; conditions: emetine 75 nM, infected high-density cells, 24 hpi, MG132
Description: Non-infected, infected or emetine-treated HFFs were treated with MG132 (10 μM) for 12h. Cells were harvested after 24 hpi and lysed with IP buffer containing 150 mM NaCl, 50mM Tris pH 7.5, 2 mM EDTA, 0.5% TritonX-100 and 0.5% NP-40-40. 1 mg of lysate was precleared with bead slurry for 30 min. The precleared lysates were incubated with anti-MDM2 (2 μg) antibody overnight. The antibody complexes were isolated using protein A/G beads (Santa Cruz), washed three times with 50% IP buffer. The immunoprecipitate-protein A/G beads were boiled in SDS sample buffer, and the supernatant was analyzed on SDS-PAGE gels after immunoblotting as described previously. 1% of the cell lysate used for IP was loaded on gels as ‘Input’. Confirmatory reverse IPs were performed as described in each experiment. Isotype control antibodies included: rabbit IgG polyclonal, mouse IgG2a kappa and mouse IgG2b kappa monoclonal (Abcam). Mouse monoclonal RPS19 antibody (Abcam) served as an additional negative control for the IPs. Densitometry analysis was performed to determine relative ratio of immunoprecipitated protein to its input level.

With `CC[C@H]1CN2CCc3cc(OC)c(OC)cc3[C@@H]2C[C@@H]1C[C@H]1NCCc2cc(OC)c(OC)cc21` [emetine, emetine dihydrochloride hydrate] the “expression of HCMV proteins IE1/2, UL44 and pp65” value [1] was “significantly reduced”, the EC50 ([2]; Human betaherpesvirus 5, read-out: EC50 against pp28-luciferase Towne) was 40 ± 1.72 nM and the “normalized pp28-luciferase activity” value ([2]; increased cell density) was “significant reduction”. For the same compound, the “normalized pp28-luciferase activity” value ([2]; low cell density) was “no reduction”, the “Hill slope of the concentration-response curve” value ([2]; pp28-luciferase Towne, HFFs) was 3.1 and the “interaction between MDM2 and p53” value (MDM2-p53) was “disrupted”.
